Assay results reported in paper PMC10333884, “Large‐scale phosphomimetic screening identifies phospho‐modulated motif‐based protein interactions” (Molecular Systems Biology, 2023).
Non-standard residues stand in square brackets, D forms with d. Residues, ends and D or L forms follow the SMILES beside them. pT = C[C@@H](OP(=O)(O)O)[C@H](N)C(=O)O; pS = N[C@@H](COP(=O)(O)O)C(=O)O

Experiments:
Format in all cases: binding
RANBP2 RanBD4 = target: T1, RANBP2 RanBD4 (Homo sapiens, UniProt P49792); test: FP displacement assay, RANBP2 RanBD4; details: probe FITC-C7orf25 5 nM, 50 mM sodium phosphate pH 7.4, room temperature, at least three technical replicates, read-out: KD values ± SEM
T1 construct: GST (cleaved yes); made in house; host or cells: Escherichia coli BL21-Gold(DE3)
T1 sequence (P49792 2924-3050): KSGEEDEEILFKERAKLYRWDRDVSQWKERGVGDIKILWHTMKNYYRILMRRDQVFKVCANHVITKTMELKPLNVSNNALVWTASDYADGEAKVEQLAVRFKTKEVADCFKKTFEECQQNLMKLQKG
Protocol: (§1) FP experiments were performed as described previously (Kliche et al, [2021]). Shortly, in order to monitor the binding event, FITC‐labelled peptides were used (excitation 495 nm, emission: 535 nm) and the FP signal was recorded in mP on a SpectraMax iD5 Multi‐Mode Microplate Reader (Molecular Devices) by measuring the emitted light in two angels. The measurements were performed at room temperature and prepared in nonbinding black half area 96‐well microplates (Corning®; 50 μl/well). For measuring direct binding, that is saturation curves, a 1:1 dilution series of protein domain (25 μl/well) was generated in 50 mM sodium phosphate buffer pH 7.4 and the measurement performed with 5 nM FITC‐labelled peptide (25 μl/well). The buffer‐corrected values were subsequently plotted with PRISM and fitted to the quadratic equation (Gianni et al, [2005]).
(§2) The 1:1 dilution series in this experiment was performed with the unlabelled peptide in 50 mM sodium phosphate buffer pH 7.4, so that each well‐contained unlabelled peptide (25 μl) at a certain concentration and pre‐formed complex (25 μl). The KD values of this indirectly monitored binding event were calculated as described previously (Nikolovska‐Coleska et al, [2004]). All measurements were at least in technical triplicates as well as biological duplicates when indicated. An amplitude shift between repeat measurements in the displacement experiments was occasionally observed due to variations in the protein preparations. If that was the case, the “active” protein concentration was back‐calculated according to the quadratic equation from the saturation curves performed in parallel. By comparing the active protein concentrations in the complex between different protein preparations, the amplitude was normalised.

AP2 μ2 = target: T2, AP2 μ2 (Homo sapiens, UniProt Q96CW1); test: FP displacement assay, AP2 μ2; details: probe FITC-ATG9A 5 nM, 50 mM sodium phosphate pH 7.4, room temperature, at least three technical replicates, read-out: KD values ± SEM
T2 construct: AP2_Mu__Q96CW1_160_435; GST (cleaved yes); made in house; host or cells: Escherichia coli BL21-Gold(DE3)
T2 sequence (Q96CW1 160-435): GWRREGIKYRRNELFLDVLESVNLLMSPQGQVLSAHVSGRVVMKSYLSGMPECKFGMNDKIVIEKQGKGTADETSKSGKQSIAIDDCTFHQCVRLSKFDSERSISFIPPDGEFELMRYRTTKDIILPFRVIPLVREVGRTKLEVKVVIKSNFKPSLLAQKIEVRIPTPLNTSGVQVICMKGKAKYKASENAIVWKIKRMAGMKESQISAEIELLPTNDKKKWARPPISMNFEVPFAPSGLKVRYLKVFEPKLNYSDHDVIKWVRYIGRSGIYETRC
Protocol: as §1, §2

PDCD6IP Alix V domain = target: T3, PDCD6IP Alix V domain (Homo sapiens, UniProt Q8WUM4); test: FP displacement assay, PDCD6IP Alix V domain; details: probe FITC-HIV1_Gag 5 nM, 50 mM sodium phosphate pH 7.4, room temperature, at least three technical replicates, read-out: KD values ± SEM
T3 construct: GST (cleaved yes); made in house; host or cells: Escherichia coli BL21-Gold(DE3)
T3 sequence (Q8WUM4 360-702): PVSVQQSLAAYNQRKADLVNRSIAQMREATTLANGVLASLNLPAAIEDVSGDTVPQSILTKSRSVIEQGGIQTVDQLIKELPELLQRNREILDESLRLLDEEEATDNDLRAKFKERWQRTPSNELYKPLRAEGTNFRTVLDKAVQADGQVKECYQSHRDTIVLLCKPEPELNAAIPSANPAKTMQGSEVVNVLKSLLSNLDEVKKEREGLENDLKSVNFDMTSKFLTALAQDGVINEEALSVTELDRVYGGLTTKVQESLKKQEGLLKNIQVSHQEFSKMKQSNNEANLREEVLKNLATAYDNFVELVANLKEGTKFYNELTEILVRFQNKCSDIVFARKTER
Protocol: as §1, §2

Clathrin NTD = target: T4, Clathrin NTD (Homo sapiens, UniProt Q00610); test: FP displacement assay, clathrin NTD
T4 construct: GST (cleaved yes); made in house; host or cells: Escherichia coli BL21-Gold(DE3)
T4 sequence (Q00610 1-364): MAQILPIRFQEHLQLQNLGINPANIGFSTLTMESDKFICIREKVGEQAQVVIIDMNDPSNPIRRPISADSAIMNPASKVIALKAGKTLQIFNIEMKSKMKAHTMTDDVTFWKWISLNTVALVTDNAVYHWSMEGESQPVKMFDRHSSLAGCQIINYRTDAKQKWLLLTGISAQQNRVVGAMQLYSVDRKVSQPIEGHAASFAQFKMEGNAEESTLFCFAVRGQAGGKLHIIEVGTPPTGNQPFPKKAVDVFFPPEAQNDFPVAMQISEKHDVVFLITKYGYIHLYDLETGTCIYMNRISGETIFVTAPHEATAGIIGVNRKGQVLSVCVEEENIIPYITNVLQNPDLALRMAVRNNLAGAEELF
Protocol: as §1, §2

CC(=O)N[C@@H](CCCCN)C(=O)N[C@@H](Cc1ccc(O)cc1)C(=O)N[C@@H](CO)C(=O)N[C@@H](CC(=O)O)C(=O)N[C@@H](CC(=O)O)C(=O)N[C@H](C(=O)N1CCC[C@H]1C(=O)N[C@@H](CC(C)C)C(=O)N1CCC[C@H]1C(=O)N[C@H](C(=O)N1CCC[C@H]1C(=O)N[C@@H](CO)C(=O)N[C@@H](Cc1ccc(O)cc1)C(=O)N[C@@H](CCCCN)C(=O)N[C@@H](Cc1ccc(O)cc1)C(=O)N[C@@H](CC(N)=O)C(N)=O)[C@@H](C)OP(=O)(O)O)[C@@H](C)O [DHX38_260–275 pS] (Ac-KYSDDTPLP[pT]PSYKYN-NH2)
Kd (RANBP2 RanBD4): 167 ± 21 µM

CC[C@H](C)[C@H](NC(=O)[C@@H](NC(=O)[C@@H]1CCCN1C(=O)[C@H](CO)NC(=O)[C@H](CO)NC(=O)[C@H](C)NC(=O)[C@@H]1CCCN1C(=O)[C@H](CCSC)NC(=O)[C@@H]1CCCN1C(=O)[C@H](CCC(N)=O)NC(=O)[C@H](Cc1ccc(O)cc1)NC(=O)[C@@H]1CCCN1C(=O)[C@@H](NC(=O)[C@@H](NC(=O)[C@H](CCSC)NC(C)=O)[C@@H](C)O)[C@@H](C)CC)C(C)C)C(=O)N[C@@H](CS)C(N)=O [PCBP1_179–194 wt] (Ac-MTIPYQPMPASSPVIC-NH2)
Kd (AP2 μ2): 3.7 ± 0.1 µM

CC(=O)N[C@H](C(=O)N[C@@H](COP(=O)(O)O)C(=O)N1CCC[C@H]1C(=O)N[C@@H](CC(C)C)C(=O)N[C@H](C(=O)N[C@@H](CO)C(=O)N[C@@H](CC(C)C)C(=O)N[C@@H](Cc1ccc(O)cc1)C(=O)N1CCC[C@H]1C(=O)N[C@@H](C)C(=O)N[C@@H](CC(C)C)C(=O)N[C@@H](CCC(=O)O)C(=O)N[C@@H](C)C(=O)N[C@@H](CCCNC(=N)N)C(=O)N[C@@H](C)C(=O)N[C@@H](CC(C)C)C(N)=O)C(C)C)[C@@H](C)O [OTUD5_507–522 pS] (Ac-T[pS]PLVSLYPALEARAL-NH2)
Kd (PDCD6IP Alix V domain): 116 ± 20 µM

CC[C@H](C)[C@H](NC(=O)[C@H](CC(C)C)NC(=O)[C@H](CC(N)=O)NC(=O)CNC(=O)CNC(=O)[C@H](Cc1ccc(O)cc1)NC(C)=O)C(=O)N[C@H](C(=O)N[C@@H](Cc1ccccc1)C(=O)N[C@@H](COP(=O)(O)O)C(=O)N1CCC[C@H]1C(=O)N[C@@H](CC(C)C)C(=O)N[C@@H](CCC(N)=O)C(=O)N1CCC[C@H]1C(=O)NCC(=O)N[C@@H](CCC(=O)O)C(=O)N[C@@H](Cc1ccccc1)C(=O)O)[C@@H](C)O [HURP832–846 pS Cterm] (Ac-YGGNLITF[pS]PLQPGEF-OH)
Kd (Clathrin NTD): < 3 µM | IC50 (Clathrin NTD; Fig 6A, clathrin NTD, FP displacement, two to three technical replicates per protein preparation, 2 independent preparations, read-out: IC50 values of displacement curves, with SEM): 11 ± 4 µM

CC(=O)N[C@@H](Cc1c[nH]cn1)C(=O)N[C@@H](CC(C)C)C(=O)N1CCC[C@H]1C(=O)N[C@@H](CC(C)C)C(=O)N[C@@H](CC(N)=O)C(=O)N[C@@H](COP(=O)(O)O)C(=O)N1CCC[C@H]1C(=O)N[C@@H](CC(C)C)C(=O)N1CCC[C@H]1C(=O)NCC(=O)N[C@@H](CO)C(=O)N[C@@H](CCC(=O)O)C(=O)N[C@@H](CC(C)C)C(=O)N[C@H](C(=O)N[C@@H](CCCCN)C(=O)N[C@@H](Cc1ccc(O)cc1)C(N)=O)[C@@H](C)O [INTS6_145–159 pS] (Ac-HLPLN[pS]PLPGSELTKY-NH2)
Kd (RANBP2 RanBD4): 733 ± 128 µM

CC(=O)N[C@H](C(=O)N[C@@H](CO)C(=O)N1CCC[C@H]1C(=O)N[C@@H](CC(C)C)C(=O)N[C@H](C(=O)N[C@@H](CO)C(=O)N[C@@H](CC(C)C)C(=O)N[C@@H](Cc1ccc(O)cc1)C(=O)N1CCC[C@H]1C(=O)N[C@@H](C)C(=O)N[C@@H](CC(C)C)C(=O)N[C@@H](CCC(=O)O)C(=O)N[C@@H](C)C(=O)N[C@@H](CCCNC(=N)N)C(=O)N[C@@H](C)C(=O)N[C@@H](CC(C)C)C(N)=O)C(C)C)[C@@H](C)O [OTUD5_507–522 wt] (Ac-TSPLVSLYPALEARAL-NH2)
Kd (PDCD6IP Alix V domain): 68 ± 6 µM

CC(=O)N[C@@H](Cc1c[nH]cn1)C(=O)N[C@@H](CC(C)C)C(=O)N1CCC[C@H]1C(=O)N[C@@H](CC(C)C)C(=O)N[C@@H](CC(N)=O)C(=O)N[C@@H](CO)C(=O)N1CCC[C@H]1C(=O)N[C@@H](CC(C)C)C(=O)N1CCC[C@H]1C(=O)NCC(=O)N[C@@H](CO)C(=O)N[C@@H](CCC(=O)O)C(=O)N[C@@H](CC(C)C)C(=O)N[C@H](C(=O)N[C@@H](CCCCN)C(=O)N[C@@H](Cc1ccc(O)cc1)C(N)=O)[C@@H](C)O [INTS6_145–159 wt] (Ac-HLPLNSPLPGSELTKY-NH2)
Kd (RANBP2 RanBD4): 334 ± 35 µM

CC[C@H](C)[C@H](NC(=O)[C@H](CCCCN)NC(=O)[C@H](CC(C)C)NC(=O)[C@@H]1CCCN1C(=O)[C@H](COP(=O)(O)O)NC(=O)[C@@H](NC(=O)[C@H](CCC(N)=O)NC(=O)[C@@H]1CCCN1C(=O)[C@H](Cc1ccc(O)cc1)NC(=O)[C@H](CC(C)C)NC(=O)[C@@H]1CCCN1C(=O)[C@H](CCCNC(=N)N)NC(=O)[C@H](CC(C)C)NC(=O)[C@@H]1CCCN1C(=O)[C@H](CO)NC(=O)[C@H](C)NC(C)=O)[C@@H](C)CC)C(N)=O [FOXK1_212–227 pS] (Ac-ASPLRPLYPQI[pS]PLKI-NH2)
Kd (PDCD6IP Alix V domain): 13 ± 2 µM

CC(=O)N[C@@H](CCCCN)C(=O)N[C@@H](Cc1ccc(O)cc1)C(=O)N[C@@H](CO)C(=O)N[C@@H](CC(=O)O)C(=O)N[C@@H](CC(=O)O)C(=O)N[C@H](C(=O)N1CCC[C@H]1C(=O)N[C@@H](CC(C)C)C(=O)N1CCC[C@H]1C(=O)N[C@H](C(=O)N1CCC[C@H]1C(=O)N[C@@H](CO)C(=O)N[C@@H](Cc1ccc(O)cc1)C(=O)N[C@@H](CCCCN)C(=O)N[C@@H](Cc1ccc(O)cc1)C(=O)N[C@@H](CC(N)=O)C(N)=O)[C@@H](C)O)[C@@H](C)O [DHX38_260–275 wt] (Ac-KYSDDTPLPTPSYKYN-NH2)
Kd (RANBP2 RanBD4): 1500 µM

CC[C@H](C)[C@H](NC(=O)[C@H](CC(C)C)NC(=O)[C@H](CCC(N)=O)NC(=O)CNC(=O)[C@H](Cc1ccc(O)cc1)NC(C)=O)C(=O)N[C@@H](CC(=O)O)C(=O)N[C@@H](CC(C)C)C(=O)N[C@@H](CO)C(=O)N[C@@H](CO)C(=O)N1CCC[C@H]1C(=O)N[C@@H](CC(C)C)C(=O)N[C@H](C(=O)N[C@@H](CCC(N)=O)C(=O)N[C@@H](CC(C)C)C(=O)N[C@@H](CO)C(=O)N1CCC[C@H]1C(=O)N[C@@H](CCC(=O)O)C(N)=O)[C@@H](C)CC [GTSE1_692–707] (Ac-YGQLIDLSSPLIQLSPE-NH2)
Kd (Clathrin NTD): ~100 µM

CC[C@H](C)[C@H](NC(=O)[C@H](CCCCN)NC(=O)[C@H](CC(C)C)NC(=O)[C@@H]1CCCN1C(=O)[C@H](CO)NC(=O)[C@@H](NC(=O)[C@H](CCC(N)=O)NC(=O)[C@@H]1CCCN1C(=O)[C@H](Cc1ccc(O)cc1)NC(=O)[C@H](CC(C)C)NC(=O)[C@@H]1CCCN1C(=O)[C@H](CCCNC(=N)N)NC(=O)[C@H](CC(C)C)NC(=O)[C@@H]1CCCN1C(=O)[C@H](CO)NC(=O)[C@H](C)NC(C)=O)[C@@H](C)CC)C(N)=O [FOXK1_212–227 wt] (Ac-ASPLRPLYPQISPLKI-NH2)
Kd (PDCD6IP Alix V domain): 25 ± 3 µM
